This note sets out measurements from patent US20110015226A1, “Treatment of Energy Utilization Disease” (SUMMIT CORPORATION PLC, priority 2008, published 2011).

Structures are written as SMILES.

As a reminder, the IC50 is the midpoint of a concentration-inhibition curve. As usually defined, the inhibition is the relative decrease from the control value, in per cent.

Assay [1] has as its system N-acetyl-β-D-glucosaminidase (Bovine kidney). The experiment in a line: Glycosidase inhibition: N-acetyl-β-D-glucosaminidase (Bovine kidney).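 As to all read-outs here: enzyme activity followed by cleavage of the matching p-nitrophenyl glycoside (5 mM) in phosphate buffer set to the enzyme's optimal pH.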 The class given is biochemical. Conditions: for % Nacetyl glucosaminidase inhibition at 0.8 mM Bovine kidney: approximately 0.8 mM; for IC50: read-out: IC50 Nacetyl glucosaminidase Bovine kidney.
Assay [2] deals with T1, β-Glucuronidase Bovine liver (Bos taurus, UniProt A3KMY8).
T1 construct: The assay involved the use of Bovine liver β-glucuronidase; purchased Sigma; host or cells: bovine liver
T1 sequence (A3KMY8 1-652): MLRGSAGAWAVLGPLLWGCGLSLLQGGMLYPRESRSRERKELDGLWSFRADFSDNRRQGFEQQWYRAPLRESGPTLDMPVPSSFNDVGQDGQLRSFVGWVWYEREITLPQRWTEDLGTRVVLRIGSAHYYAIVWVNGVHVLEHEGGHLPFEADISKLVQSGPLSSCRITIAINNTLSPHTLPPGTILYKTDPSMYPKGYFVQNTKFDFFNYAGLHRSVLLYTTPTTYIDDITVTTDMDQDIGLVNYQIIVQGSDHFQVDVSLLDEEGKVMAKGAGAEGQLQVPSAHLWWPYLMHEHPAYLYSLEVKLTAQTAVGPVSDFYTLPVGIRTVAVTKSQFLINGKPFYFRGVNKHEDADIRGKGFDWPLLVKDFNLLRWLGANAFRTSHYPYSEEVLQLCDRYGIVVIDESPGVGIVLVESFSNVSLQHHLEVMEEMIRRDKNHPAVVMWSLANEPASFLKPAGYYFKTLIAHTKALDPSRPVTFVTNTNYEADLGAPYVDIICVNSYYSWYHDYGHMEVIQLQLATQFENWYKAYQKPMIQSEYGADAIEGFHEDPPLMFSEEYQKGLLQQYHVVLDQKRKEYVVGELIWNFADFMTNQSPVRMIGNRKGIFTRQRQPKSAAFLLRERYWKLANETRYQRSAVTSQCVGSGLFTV
The experiment in a line: Glycosidase inhibition: β-Glucuronidase Bovine liver.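 As to all read-outs here: bovine liver β-glucuronidase acting on p-nitrophenyl β-D-glucuronide substrate in citric acid/disodium hydrogen phosphate buffer, pH 5.0, 27 °C, mean of triplicate runs.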 The class given is biochemical. The note with it: for % Glucuronidase inhibition at 0.8 mM Bovine Liver: approximately 0.8 mM; for IC50: read-out: IC50 Glucuronidase Bovine Liver.

Turning to `N[C@]1(C(=O)O)C[C@H](CO)C1`, the “% Nacetyl glucosaminidase inhibition at 0.8 mM Bovine kidney” value (“% Nacetyl glucosaminidase inhibition” for short) in assay [1] was found to be 7.1%. The “% Glucuronidase inhibition at 0.8 mM Bovine Liver” value (shortened to “% Glucuronidase inhibition”) in assay [2] was −2.2%.

For `O=C(O)[C@@H]1[C@@H](O)[C@H](O)[C@H]2[C@@H](O)CCN21`, the “% Nacetyl glucosaminidase inhibition” value in assay [1] was 5.1%. The “% Glucuronidase inhibition” value in assay [2] is given as −2.3%.

For `CCC1CC(CC2CC(CCCC(C)C)[C@@H](CC)C(C)[C@H]2C)C(C)C(C)C1C` (stereo partly drawn), the “% Nacetyl glucosaminidase inhibition” value in assay [1] turned out to be 49.4%. Moreover, the “% Glucuronidase inhibition” value in assay [2] was determined as 3.9%.

Regarding `CN1C[C@H](O)C[C@H]1C(=O)O`, the “% Nacetyl glucosaminidase inhibition” value in assay [1] was −4.7%. In assay [2], the “% Glucuronidase inhibition” value is reported as −3.7%.

On to `C[N+]1([O-])CC[C@H](O)[C@@H]1C(=O)O` (stereo partly drawn), for which the “% Nacetyl glucosaminidase inhibition” value in assay [1] is given as −0.6%. Moreover, the “% Glucuronidase inhibition” value in assay [2] is recorded as −4.4%.

As for `C[N+]1(C)C[C@@H](O)[C@H](O)[C@H]1C(=O)[O-]`, the “% Nacetyl glucosaminidase inhibition” value in assay [1] amounted to 8%. Besides, the “% Glucuronidase inhibition” value in assay [2] is 3.8%.

Take `O=C(O)[C@@]1(O)CNC[C@@H](O)[C@H]1O`: the “% Nacetyl glucosaminidase inhibition” value in assay [1] was 4.8%. Moreover, in assay [2], the “% Glucuronidase inhibition” value came out at 58.6% and the IC50 was determined as 531 µM.

Consider `CC(O)(CC(N)C(=O)O)C(=O)O` (stereo not drawn), for which, in assay [1], the “% Nacetyl glucosaminidase inhibition” value is −4.2%. Further, the “% Glucuronidase inhibition” value in assay [2] is given as −3.2%.

For the compound `C[N+]1(C)CCC[C@H]1C(=O)[O-]`, in assay [1], the “% Nacetyl glucosaminidase inhibition” value is reported as 2.3%. Moreover, the “% Glucuronidase inhibition” value in assay [2] is on record as −1.7%.

`CC(CC(N)C(=O)O)C(=O)O` (stereo not drawn): the “% Nacetyl glucosaminidase inhibition” value in assay [1] came to 0.8%. Further, the “% Glucuronidase inhibition” value in assay [2] is reported as −1.6%.

For `O=C(O)[C@]1(O)NC[C@@H](O)[C@H]1O`, the “% Nacetyl glucosaminidase inhibition” value in assay [1] is 2.9%. Also, the “% Glucuronidase inhibition” value in assay [2] is 1.4%.

In the case of `CC[C@@H]1C(C)[C@H](C)CN1CCCC(C)=O` (stereo partly drawn), the “% Nacetyl glucosaminidase inhibition” value in assay [1] was 17%. Further, the “% Glucuronidase inhibition” value in assay [2] is on record as −2%.

Turning to `O=C(O)CCC1[C@H](CO)C(=O)[C@H](O)[C@H]1CO` (stereo partly drawn), in assay [1], the “% Nacetyl glucosaminidase inhibition” value came to 90.1% and the IC50 was found to be 5.1 µM. In assay [2], the “% Glucuronidase inhibition” value turned out to be 85.3% and the IC50 was 81 µM.

As for `CC[C@@H]1C(=O)[C@H](O)CN1CCCCC(=O)O`, in assay [1], the “% Nacetyl glucosaminidase inhibition” value turned out to be 8%. Moreover, the “% Glucuronidase inhibition” value in assay [2] was determined as 0.8%.

In the case of `C[C@@]1(C(=O)O)NC[C@H](O)[C@H]1O`, in assay [1], the “% Nacetyl glucosaminidase inhibition” value is 7.6%. In addition, the “% Glucuronidase inhibition” value in assay [2] is reported as 0.6%.

As for `O=C(O)[C@H]1NCC(O)C1O` (stereo partly drawn), the “% Nacetyl glucosaminidase inhibition” value in assay [1] was 6.6%. Besides, in assay [2], the “% Glucuronidase inhibition” value amounted to 13.8%.

In the case of `O=C(O)[C@H]1N[C@H](CO)C(O)[C@H](O)[C@@H]1O` (stereo partly drawn), the “% Nacetyl glucosaminidase inhibition” value in assay [1] was 25.8%. In assay [2], the “% Glucuronidase inhibition” value amounted to 3.3%.

`O=C(O)CN1C[C@@H](O)[C@@H](O)C1[C@@H](O)CO` (stereo partly drawn): in assay [1], the “% Nacetyl glucosaminidase inhibition” value amounted to 82.3% and the IC50 was 137 µM. The “% Glucuronidase inhibition” value in assay [2] worked out at 4%.

Take `CC(=O)NC1NC[C@H](C(=O)O)[C@H](O)[C@@H]1O` (stereo partly drawn): the “% Nacetyl glucosaminidase inhibition” value in assay [1] is recorded as 57.9%. Also, in assay [2], the “% Glucuronidase inhibition” value amounted to 97.9% and the IC50 stood at 7.3 µM.

As for `O=C(O)[C@H]1NC(=O)[C@H](O)[C@@H](O)[C@@H]1O`, in assay [1], the “% Nacetyl glucosaminidase inhibition” value is listed as −5.2%. Also, in assay [2], the “% Glucuronidase inhibition” value worked out at 99.6% and the IC50 amounted to 0.04 µM.

As for `Cn1c(=O)c2c(ncn2C)n(C)c1=O` [Caffeine, reference compound], in assay [1] (143 ug/ml), the “Mean % Inhibition, N-acetyl-β-D-glucosaminidase Bovine kidney” value worked out at 1.3%. In assay [2] (143 ug/ml), the inhibition at 143 µg/mL is -2.4%.

Regarding `O=C(O)[C@H]1NC[C@H](O)[C@@H](O)[C@@H]1O` [drawing 22], the “% Nacetyl glucosaminidase inhibition” value in assay [1] amounted to 2.4%. Moreover, in assay [2], the “% Glucuronidase inhibition” value is reported as 88.9% and the IC50 was 107 µM.
